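In this assay, cells in 96-well plates receive the compound at five concentrations for 48 hours. Endpoints are linearly interpolated between the surrounding concentrations. GI50: concentration for 50% inhibition of growth.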 Active and inactive are the calls of the source. Rule as the data show it: active = GI50 up to about 1.1 µM and inactive = higher.
Legend:
Test in all cases: NCI anticancer screen, dose series, 48 h
K562 = test system: K562
SNB-19 = test system: SNB-19
MCF7 = test system: MCF7
SN12C = test system: SN12C
RPMI-8226 = test system: RPMI-8226
U-251 = test system: U-251
HCC 2998 = test system: HCC 2998
EKVX = test system: EKVX
MDA-N = test system: MDA-N
UO-31 = test system: UO-31
SR = test system: SR
SK-MEL-5 = test system: SK-MEL-5
OVCAR-3 = test system: OVCAR-3
BT-549 = test system: BT-549
SF-295 = test system: SF-295
OVCAR-4 = test system: OVCAR-4
MOLT-4 = test system: MOLT-4
OVCAR-8 = test system: OVCAR-8
Hs-578T = test system: Hs-578T
HT-29 = test system: HT-29

SMILES | GI50 (K562) | GI50 (SNB-19) | GI50 (MCF7) | GI50 (SN12C) | GI50 (RPMI-8226) | GI50 (U-251) | GI50 (HCC 2998) | GI50 (EKVX) | GI50 (MDA-N) | GI50 (UO-31) | GI50 (SR) | GI50 (SK-MEL-5) | GI50 (OVCAR-3) | GI50 (BT-549) | GI50 (SF-295) | GI50 (OVCAR-4) | GI50 (MOLT-4) | GI50 (OVCAR-8) | GI50 (Hs-578T) | GI50 (HT-29)
CC(C)(C)OC(=O)[C@@H]1CCC(=S)N1Cc1ccccc1 | > 100 µM (inactive) | > 100 µM (inactive) | > 100 µM (inactive) | > 100 µM (inactive) | > 100 µM (inactive) | > 100 µM (inactive) | > 100 µM (inactive) | 92 µM (inactive) | > 100 µM (inactive) | 78.2 µM (inactive) | 76.9 µM (inactive) | 47.4 µM (inactive) | > 100 µM (inactive) | 71.8 µM (inactive) | > 100 µM (inactive) | > 100 µM (inactive) | 93.1 µM (inactive) | > 100 µM (inactive) |  | 
CN1CCC(OC(=O)Oc2ccccc2)(c2ccccc2)CC1 | 24.7 µM (inactive) | 25.4 µM (inactive) | 20 µM (inactive) | 15.4 µM (inactive) | 15.5 µM (inactive) | 21.9 µM (inactive) | 19.6 µM (inactive) | 45.8 µM (inactive) | 17.6 µM (inactive) | 19.6 µM (inactive) | 15.9 µM (inactive) | 20 µM (inactive) | 61.5 µM (inactive) |  | 24 µM (inactive) | 18.3 µM (inactive) | 13.1 µM (inactive) | 17.5 µM (inactive) | 28.5 µM (inactive) | 4.51 µM (inactive)
Sc1cnnc2ccc(Br)cc12 | 37.8 µM (inactive) | 74.3 µM (inactive) | 34.7 µM (inactive) | 69.5 µM (inactive) | 69 µM (inactive) | 38.7 µM (inactive) | 34.6 µM (inactive) | 22.5 µM (inactive) |  | 34.9 µM (inactive) | 52 µM (inactive) | 32.1 µM (inactive) | 30.3 µM (inactive) | 37.3 µM (inactive) | 34 µM (inactive) | 35.9 µM (inactive) | 40.2 µM (inactive) | 59.2 µM (inactive) | 57.3 µM (inactive) | 26.4 µM (inactive)
O=C(C1OC1c1ccc(Br)cc1O)C12CC3CC(CC(C3)C1)C2 (centres undefined) | 15.4 µM (inactive) | 34.8 µM (inactive) | 22.3 µM (inactive) | 15.6 µM (inactive) | 17.8 µM (inactive) | 15.7 µM (inactive) | 21.4 µM (inactive) | > 100 µM (inactive) | 17 µM (inactive) | 13.2 µM (inactive) |  | 19.5 µM (inactive) | 31.5 µM (inactive) |  | 17.9 µM (inactive) | 26.2 µM (inactive) | 16.1 µM (inactive) | 20.5 µM (inactive) | 15.7 µM (inactive) | 28.8 µM (inactive)
CCCCN(CC)C(=O)C1=C(C)NC(C)=C(C(=O)N(CC)CCCC)C1 |  | > 100 µM (inactive) | > 100 µM (inactive) | > 100 µM (inactive) |  | > 100 µM (inactive) | > 100 µM (inactive) | > 100 µM (inactive) | > 100 µM (inactive) | > 100 µM (inactive) |  | > 100 µM (inactive) | > 100 µM (inactive) | > 100 µM (inactive) | > 100 µM (inactive) | > 100 µM (inactive) | > 100 µM (inactive) | > 100 µM (inactive) |  | > 100 µM (inactive)
CCOC(=O)CCC1(CCC(=O)OCC)CCCCCCCCC(CCC(=O)OCC)(CCC(=O)OCC)C(=O)C1=O | > 100 µM (inactive) | > 100 µM (inactive) | > 100 µM (inactive) | > 100 µM (inactive) |  | > 100 µM (inactive) | > 100 µM (inactive) | > 100 µM (inactive) | > 100 µM (inactive) |  | > 100 µM (inactive) | > 100 µM (inactive) | > 100 µM (inactive) |  | > 100 µM (inactive) | > 100 µM (inactive) |  | > 100 µM (inactive) | > 100 µM (inactive) | > 100 µM (inactive)
O=C1CC2(c3ccccc3)ON=C(c3ccccc3)N2c2ccccc2N1 (centres undefined) | 38.8 µM (inactive) | > 100 µM (inactive) | 55.7 µM (inactive) | 52.7 µM (inactive) | 63.4 µM (inactive) | 80.9 µM (inactive) | 65 µM (inactive) | 57.1 µM (inactive) | 32.7 µM (inactive) | 32.4 µM (inactive) | 35.6 µM (inactive) |  | 30.8 µM (inactive) | 37.2 µM (inactive) | > 100 µM (inactive) | > 100 µM (inactive) | 29.7 µM (inactive) | 77.1 µM (inactive) |  | 38.3 µM (inactive)
CN(C)c1ccc(/C=C2\C[C@H]3[C@@H]4CCc5cc(OCCN6CCCC6)ccc5[C@H]4CC[C@]3(C)C2=O)cc1 | 1.08 µM (active) | 1.89 µM (inactive) | 1.52 µM (inactive) | 1.62 µM (inactive) | 1.75 µM (inactive) |  | 1.53 µM (inactive) | 2.2 µM (inactive) | 1.85 µM (inactive) | 1.54 µM (inactive) | 0.333 µM (active) | 1.73 µM (inactive) |  | 3.39 µM (inactive) | 1.86 µM (inactive) | 1.63 µM (inactive) | 1.31 µM (inactive) |  |  | 0.288 µM (active)
CN(C)CCCNC(=O)CCNC(=O)c1cc(NC(=O)c2cc(NC(=O)c3cc(NC(=O)CCCNC(=O)c4cc(NC(=O)c5cc(NC(=O)c6nccn6C)cn5C)cn4C)cn3C)cn2C)cn1C | > 100 µM (inactive) | > 100 µM (inactive) | > 100 µM (inactive) | > 100 µM (inactive) | > 100 µM (inactive) | > 100 µM (inactive) | > 100 µM (inactive) | > 100 µM (inactive) | > 100 µM (inactive) | > 100 µM (inactive) |  | > 100 µM (inactive) | > 100 µM (inactive) |  | > 100 µM (inactive) | > 100 µM (inactive) | > 100 µM (inactive) | > 100 µM (inactive) | > 100 µM (inactive) | > 100 µM (inactive)
O=C(c1ccc(Br)cc1)n1c2ccc(Br)cc2c2nc3ccccc3nc21 | > 100 µM (inactive) | > 100 µM (inactive) | > 100 µM (inactive) | > 100 µM (inactive) | > 100 µM (inactive) | > 100 µM (inactive) | > 100 µM (inactive) | > 100 µM (inactive) | > 100 µM (inactive) | > 100 µM (inactive) | 83.2 µM (inactive) | > 100 µM (inactive) | > 100 µM (inactive) | > 100 µM (inactive) | > 100 µM (inactive) | > 100 µM (inactive) | 43.9 µM (inactive) | > 100 µM (inactive) |  | > 100 µM (inactive)
COc1ccc2c(c1)/C(=C\c1c(C)nc3n1CCS3)C(=O)N2 | 10.3 µM (inactive) | 33.8 µM (inactive) | 27.6 µM (inactive) | 26.5 µM (inactive) | 34.5 µM (inactive) | 22.1 µM (inactive) | 19.2 µM (inactive) | 34.5 µM (inactive) | 3.29 µM (inactive) | 34.3 µM (inactive) | 9.14 µM (inactive) | 34 µM (inactive) | 21.7 µM (inactive) | 21.1 µM (inactive) | 16.4 µM (inactive) |  | 32.4 µM (inactive) | 37 µM (inactive) |  | 12.6 µM (inactive)
CC(C)=C[C@@H]1C[C@H](n2cc(C)c(=O)[nH]c2=O)ON1CCO | > 100 µM (inactive) | > 100 µM (inactive) | > 100 µM (inactive) | > 100 µM (inactive) | > 100 µM (inactive) | > 100 µM (inactive) |  | > 100 µM (inactive) | > 100 µM (inactive) | > 100 µM (inactive) | > 100 µM (inactive) | > 100 µM (inactive) | > 100 µM (inactive) |  | > 100 µM (inactive) | > 100 µM (inactive) | > 100 µM (inactive) | > 100 µM (inactive) | > 100 µM (inactive) | > 100 µM (inactive)
c1ccc2nc3c(nc2c1)sc1ccccc13 | > 100 µM (inactive) | 14.5 µM (inactive) | 26.5 µM (inactive) | 34 µM (inactive) | > 100 µM (inactive) | 16 µM (inactive) | 32.9 µM (inactive) | 16.1 µM (inactive) |  | 23.7 µM (inactive) | 41.2 µM (inactive) | 30.9 µM (inactive) | 29.4 µM (inactive) | 39.2 µM (inactive) | 30.7 µM (inactive) | 17.5 µM (inactive) | 21.8 µM (inactive) |  | 30.5 µM (inactive) | 39.4 µM (inactive)
NC(=O)c1nnn(-c2ccccc2)c1O | > 100 µM (inactive) | > 100 µM (inactive) | > 100 µM (inactive) | > 100 µM (inactive) | > 100 µM (inactive) | > 100 µM (inactive) | > 100 µM (inactive) | > 100 µM (inactive) |  | > 100 µM (inactive) |  | > 100 µM (inactive) | > 100 µM (inactive) | > 100 µM (inactive) | > 100 µM (inactive) |  | > 100 µM (inactive) | > 100 µM (inactive) | > 100 µM (inactive) | > 100 µM (inactive)
C[n+]1ccc(-c2cc[n+](C)cc2)cc1 [PARAQUAT DICHLORIDE] | > 100 µM (inactive) | 4.99 µM (inactive) |  | 10.2 µM (inactive) | > 70 µM (inactive) | > 32.8 µM (inactive) | 14.5 µM (inactive) | > 30.6 µM (inactive) |  | > 100 µM (inactive) | 11.6 µM (inactive) | 11.5 µM (inactive) | 14 µM (inactive) |  | > 19.6 µM (inactive) | 1.55 µM (inactive) | > 34.5 µM (inactive) | > 30 µM (inactive) |  | 10.8 µM (inactive)
